# Test results as given in US11033568B2, “Nicotinamide riboside compositions for topical use in treating skin conditions” (ChromaDex Inc., priority 2013, dated 2021).
# Experiments:
# [1] = test system: A431 human epidermoid cells; assay: Oxidative damage protection assay (1 mM H2O2, alamar blue cell viability); type: cell-based; conditions: for percent cytoprotection: 1 mM H2O2, vs positive (H2O2) control
# Protocol: A431 human epidermoid cells (ATCC #CRL1555) were grown in DMEM media supplemented with 10% FBS and 1% PenStrep in T75 flasks based on culture recommendations. The media was replaced every two-three days till >80% confluency was attained. The cells were trypsinized with 0.25% trypsin EDTA solution for 2-3 minutes until the cells were dislodged. The cells were sub-cultured in a ratio of 1:3 for further growth and scale-up for the assay. The cells were trypsinized and counted to a density of 5,000 or 15,000 cells and seeded in […], media/well in 96-well clear bottom black plates. The outer wells at the periphery of the plates were left unseeded and were instead filled with media to reduce the edge effect during incubation. The plates were incubated overnight in a humidified incubator at 37° C./5% CO2 to confirm that the cells were attached. The Nicotinamide Riboside chloride (NR chloride) was added at indicated final assay concentrations in the media either under pre-treatment for 24 h (without hydrogen peroxide) or along with 1 mM hydrogen peroxide for an incubation of 20 h in a humidified incubator at 37° C./5% CO2 either with media replenishment at 8 h or under growth synchronized conditions using 1% FBS. Each concentration was tested in 6 replicates. Appropriate controls: cells without compound and hydrogen peroxide (no cytotoxicity; negative control), cells without compound but in the presence of 1 mM hydrogen peroxide (positive control), wells with alamar blue alone (blank) were kept in each assay. Cell viability was graphed and data was represented as percent cytotoxicity for 1 mM H2O2 under a given assay condition with respect to negative (untreated control) cells or percent cytoprotection in the presence of the test compound calculated with respect to positive (1 mM H2O2) control.
# [2] = test system: NIH 3T3 fibroblasts; assay: Scratch wound healing assay (CytoSelect Wound Healing Assay Kit); type: cell-based, mouse
# Protocol: NIH 3T3 fibroblasts were obtained from […]) and cultured in Dulbecco's modified Eagle's medium (DMEM) supplemented with 10% fetal bovine serum (FBS), 4 mM L-glutamine, 1% penicillin/streptomycin under a fully humidified atmosphere containing 5% CO2 at 37° C. For experiments, cells were collected from subconfluent monolayers with trypsin/EDTA. Cell viability was higher as 95% using trypan blue dye exclusion staining. The study was carried out using cells from passages 4-7 in DMEM medium containing 1% FBS. Untreated cells (1% FBS) were used as negative controls. The effect of nicotinamide riboside chloride (NR chloride) on wound closure in NIH 3T3 fibroblasts was investigated. Cell viability was determined by cell titer blue (Promega), wound closure by CytoSelectTM Wound Healing Assay Kit (Cell Biolabs, Inc., San Diego, USA). All conditions were performed in three independent, controlled experiments. […] Microscopic imaging of wound closure was analyzed using “Image J” software. […] Apart from microscopic observations, data was analyzed for the determination of total surface area of the defined wound area using “Image J” software. Surface area of the migrated cells into the wound area was calculated by subtracting surface area after 24 hour from total surface area of the wound at “0” hour. […]
# [3] = test system: A431 cell line; assay: UV-C damage assay, cyclobutane pyrimidine dimer (CPD) ELISA; type: cell-based, human; conditions: for cyclobutane pyrimidine dimer (CPD) level vs. control: 2 h pre-treatment, 10 J/m^2 UVC
# Protocol: The A431 cell line was seeded in 6-wells plate at a seeding density of 4×10^5 cells/well in 2 ml of culture media containing 10% FBS. The cells were left untreated as a control or treated with different concentrations of NR chloride in the media (5 mM and 1 mM) for 2 h under a fully humidified atmosphere containing 5% CO2 at 37° C. After incubation, culture media was replaced by PBS and cells were exposed to 10 J/m^2 UVC irradiation. Plates were harvested along with respective controls immediately after UVC exposure (Negative Control was cells without UV-C exposure while Positive Control was untreated Cells with UV-C exposure). DNA from cells in each condition was extracted and quantified by NanoDrop. DNA samples were then added in the ELISA plate at 100 ng/well conc. and amount of cyclobutane pyrimidine dimer (CPD) was estimated in the DNA samples using CPD-DNA estimation kits (OxiSelect™, Cell Biolabs, Inc., San Diego, USA) as per manufacturer's protocol.
# [4] = cited from earlier work
SMILES,"percent cytoprotection ([1]; 0.04 mM, normal growth (10% FBS)) [%]","percent cytoprotection ([1]; 0.2 mM, growth synchronized (1% FBS)) [%]","percent cytoprotection ([1]; 0.2 mM, normal growth (10% FBS)) [%]","percent cytoprotection ([1]; 1 mM, growth synchronized (1% FBS)) [%]","percent cytoprotection ([1]; 1 mM, normal growth (10% FBS)) [%]","percent cytoprotection ([1]; 5 mM, growth synchronized (1% FBS)) [%]",reduction of oxidative damage-mediated cell death ([1]; expected),"reduction of oxidative damage-mediated cell death ([1]; summary over conditions, even in growth arrested condition)",gap closure ([2]; 0.2 mM + 1% FBS) [%],"gap closure ([2]; 1 mM + 1% FBS, 24 hour incubation) [%]","cyclobutane pyrimidine dimer (CPD) level vs. control ([3]; +1 mM, 1.2 μg/ml DNA control) [%]","cyclobutane pyrimidine dimer (CPD) level vs. control ([3]; +1 mM, 2.1 μg/ml DNA control) [%]","cyclobutane pyrimidine dimer (CPD) level vs. control ([3]; +5 mM, 1.2 μg/ml DNA control) [%]","cyclobutane pyrimidine dimer (CPD) level vs. control ([3]; +5 mM, 2.1 μg/ml DNA control) [%]",reduction of levels of CPDs ([3]; expected),half life t1/2 ([4]; in blood),"oral bioavailability ([4]; in vivo, po)"
"NC(=O)c1ccc[n+]([C@@H]2O[C@H](CO)[C@@H](O)[C@H]2O)c1 [NR chloride, Nicotinamide Riboside chloride]",−1,2,8,15,23,38,at least 10%,10-40%,13,46,−32,−41,−34,−50,at least 10%,,
"COc1cc(/C=C/c2ccc(O)cc2)cc(OC)c1 [pterostilbene, 3,5-dimethoxy-4′-hydroxy-trans-stilbene]",,,,,,,,,,,,,,,,about 105 minutes,orally bioavailable
